Test results as given in article PMC4690813 (Journal of medicinal chemistry, 2015).

How the values were obtained:
[1] = system: panel of serine hydrolases; details: gel-based competitive ABPP; FAAH only detected off-target; ref [12], [13]; cited from earlier work
recombinant human DAGLα = biological target: T1, recombinant human DAGLα (Homo sapiens, UniProt Q9Y4D2); test: colorimetric DAGLα activity assay; type: biochemical; details: for LipE: LipE = pIC50 - cLogP; for fold drop in potency/activity: 2 compared to 1, 109 compared to 1, 122 compared to oleoyl analogue 121
T1 sequence (Q9Y4D2 1-1042): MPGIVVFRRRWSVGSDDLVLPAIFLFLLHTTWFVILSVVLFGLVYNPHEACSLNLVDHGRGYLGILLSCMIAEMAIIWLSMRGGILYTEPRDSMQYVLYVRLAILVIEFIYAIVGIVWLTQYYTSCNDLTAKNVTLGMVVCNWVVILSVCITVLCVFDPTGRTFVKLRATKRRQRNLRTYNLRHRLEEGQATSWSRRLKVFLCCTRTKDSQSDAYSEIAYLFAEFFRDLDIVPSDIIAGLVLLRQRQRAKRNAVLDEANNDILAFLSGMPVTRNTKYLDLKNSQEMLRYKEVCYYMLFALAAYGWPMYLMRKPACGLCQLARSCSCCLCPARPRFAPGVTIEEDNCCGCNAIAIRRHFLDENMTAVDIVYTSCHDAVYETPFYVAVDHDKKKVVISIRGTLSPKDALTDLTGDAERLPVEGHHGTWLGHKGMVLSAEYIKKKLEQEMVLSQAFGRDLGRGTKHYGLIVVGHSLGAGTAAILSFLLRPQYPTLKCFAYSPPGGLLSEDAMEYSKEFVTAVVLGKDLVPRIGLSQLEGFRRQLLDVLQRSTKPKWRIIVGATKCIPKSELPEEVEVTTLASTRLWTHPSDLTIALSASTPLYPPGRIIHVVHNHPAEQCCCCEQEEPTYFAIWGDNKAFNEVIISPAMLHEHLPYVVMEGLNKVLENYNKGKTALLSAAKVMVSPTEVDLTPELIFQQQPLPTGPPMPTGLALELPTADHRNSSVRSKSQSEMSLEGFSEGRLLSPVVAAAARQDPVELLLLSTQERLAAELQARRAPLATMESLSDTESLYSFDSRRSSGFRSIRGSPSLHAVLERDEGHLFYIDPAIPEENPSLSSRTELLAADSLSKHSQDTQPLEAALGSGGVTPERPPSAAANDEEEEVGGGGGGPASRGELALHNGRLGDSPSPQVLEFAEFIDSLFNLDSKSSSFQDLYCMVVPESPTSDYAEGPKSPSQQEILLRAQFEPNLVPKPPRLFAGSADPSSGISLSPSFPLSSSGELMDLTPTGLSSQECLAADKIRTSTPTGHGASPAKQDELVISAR

FAAH = FAAH activity reported in the literature; type: biochemical; details: DAGLα pIC50 versus previously reported FAAH pKi

Row | LipE (recombinant human DAGLα) | SMILES | also measured
1 | 3.35 | O=C(CCCCCc1ccccc1)c1nc2ncccc2o1 [Compound 1, 1-(Oxazolo[4,5-b]pyridin-2-yl)-6-phenylhexan-1-one] | selectivity over a panel of serine hydrolases [1]: highly selective
2 | – | O=C(CCCCCCc1ccccc1)c1nc(C(=O)C(F)(F)F)co1 [Compound 45] | selectivity over FAAH (FAAH): selective over FAAH
3 | 2.11 | O=C(CCc1ccccc1)c1nc2ncccc2o1 [Compound 106, 1-(Oxazolo[4,5-b]pyridin-2-yl)-3-phenylpropan-1-one] | –
4 | 2.64 | O=C(CCCc1ccccc1)c1nc2ncccc2o1 [Compound 107, 1-(Oxazolo[4,5-b]pyridin-2-yl)-4-phenylbutan-1-one] | –
5 | 3.15 | O=C(CCCCc1ccccc1)c1nc2ncccc2o1 [Compound 108, 1-(Oxazolo[4,5-b]pyridin-2-yl)-5-phenylpentan-1-one] | –
6 | 1.68 | O=C(CCCCCCc1ccccc1)c1nc2ncccc2o1 [Compound 109, 1-(Oxazolo[4,5-b]pyridin-2-yl)-7-phenylheptan-1-one] | fold drop in potency/activity (recombinant human DAGLα): > 10 fold
7 | 2.20 | O=C(CCCCCCCc1ccccc1)c1nc2ncccc2o1 [Compound 110, 1-(Oxazolo[4,5-b]pyridin-2-yl)-8-phenyloctan-1-one] | –
8 | 2.78 | O=C(CCCCCCCCc1ccccc1)c1nc2ncccc2o1 [Compound 111] | –
9 | – | CCCCC/C=C\C/C=C\C/C=C\C/C=C\CCCC(=O)c1nc2ncccc2o1 [Compound 122] | fold drop in potency/activity (recombinant human DAGLα): ~100 fold
10 | – | CCCCCCCC/C=C\CCCCCCCC(=O)c1nc2ccccc2[nH]1 [Compound 123] | selectivity over FAAH (FAAH): selective over FAAH
11 | – | O=C(CCCCCCc1ccccc1)c1ncc(-c2ccccn2)o1 [OL-135, reference compound] | DAGLα inhibitor activity (in words) (recombinant human DAGLα): not active
